Results on seven compounds are retold here after article PMC2715367 (Journal of medicinal chemistry, 2009).

For series [1], the system named is T. cruzi trypomastigotes (Tulahuen strain). The series is described as follows: Efficacy studies in T. cruzi infected mice. Format: in vivo. The note with it: for Weight loss in mice: 100 mg/kg twice per day, days 8−13; for Survival of infected mice: oral gavage for 20 days from day 8 post-infection.
The target in another series is T1, human 14DM (Homo sapiens, UniProt Q16850).
T1 sequence (Q16850 1-509): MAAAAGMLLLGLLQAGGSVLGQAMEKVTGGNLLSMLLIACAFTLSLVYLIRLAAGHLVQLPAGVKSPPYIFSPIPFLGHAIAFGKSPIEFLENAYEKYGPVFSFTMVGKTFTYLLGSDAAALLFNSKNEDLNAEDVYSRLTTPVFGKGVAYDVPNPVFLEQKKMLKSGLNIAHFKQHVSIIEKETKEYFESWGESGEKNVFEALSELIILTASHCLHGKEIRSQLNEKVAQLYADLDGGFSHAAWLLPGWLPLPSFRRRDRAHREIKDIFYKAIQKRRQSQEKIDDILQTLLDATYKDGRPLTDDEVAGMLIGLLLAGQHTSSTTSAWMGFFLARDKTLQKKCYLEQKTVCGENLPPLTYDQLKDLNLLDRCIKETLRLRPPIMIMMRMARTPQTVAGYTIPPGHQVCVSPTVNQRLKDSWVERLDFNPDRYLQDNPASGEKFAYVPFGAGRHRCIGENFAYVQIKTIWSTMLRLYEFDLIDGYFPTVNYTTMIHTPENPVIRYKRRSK
The series is described as follows: Inhibition of human 14DM. The series is classed as biochemical. As to conditions: same conditions as Tc14DM assay.

The nature of series [2]: Pharmacokinetic studies in mice. As to conditions: female, BALB/c, mouse, po, 50 mg/kg.
The target of series [3] is recombinant human CYP3A4 enzyme (Homo sapiens, UniProt P08684). The series can be described thus: CYP3A4 inhibition assay. The series is classed as in vitro ADME. The note with it: in vitro.
Sequence of recombinant human CYP3A4 enzyme (P08684 whole entry): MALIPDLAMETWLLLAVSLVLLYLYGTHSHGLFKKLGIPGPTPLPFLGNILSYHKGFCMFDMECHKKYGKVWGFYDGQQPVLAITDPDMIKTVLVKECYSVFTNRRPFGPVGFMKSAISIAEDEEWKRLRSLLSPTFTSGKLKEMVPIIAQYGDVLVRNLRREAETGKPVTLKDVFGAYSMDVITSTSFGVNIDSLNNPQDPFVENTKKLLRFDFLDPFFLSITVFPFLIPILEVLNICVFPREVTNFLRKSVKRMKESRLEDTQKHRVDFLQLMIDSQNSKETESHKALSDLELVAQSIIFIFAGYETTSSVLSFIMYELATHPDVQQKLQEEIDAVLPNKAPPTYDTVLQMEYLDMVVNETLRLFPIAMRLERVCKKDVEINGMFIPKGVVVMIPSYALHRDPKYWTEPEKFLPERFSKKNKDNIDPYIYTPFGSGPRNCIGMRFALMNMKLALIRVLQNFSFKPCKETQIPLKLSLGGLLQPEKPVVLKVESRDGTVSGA
The next series has as its target rat PFT (Rattus norvegicus, UniProt Q02293+Q04631). The series can be described thus: Rat PFT scintillation proximity assay. The series is classed as biochemical. As to conditions: for Fold increase in PFT IC50 (decrease in PFT inhibition) compared to tipifarnib: rat PFT. Background: Scintillation proximity formats need no separation of bound from free tracer.
For series [4], the system named is mammalian cytochrome P450 enzymes. The note with it: cited from earlier work.
The conditions of series [5]: cited from earlier work.
For series [6] the following is noted: oral; cited from earlier work.
The next series concerns T. cruzi amastigotes. The series can be described thus: T. cruzi growth inhibition assay. Format: cell-based. As to conditions: Trypanosoma cruzi, read-out: T. cruzi amastigote EC50.
Another series concerns T. cruzi PFT enzyme. As to conditions: cited from earlier work.

Marks after values point to notes of the source that are not given here. A value given as a limit tells only on which side of the number the result lay.

As to `O=C(Cn1ccnc1[N+](=O)[O-])NCc1ccccc1` [Benznidazole, benznidazole], the “Mice with positive parasite blood cultures” value in series [1] (surviving mice sacrificed at day 103 post-infection) is on record as 3 of 6.

As to `Cc1c(Cl)cccc1-c1cc(=O)n(C)c2ccc([C@](N)(c3ccc(Cl)cc3)c3cncn3C)cc12` (racemic) [Compound 2c], the “Inhibition of human 14DM” value on human 14DM is reported as “do not inhibit”.

For the compound `COC(c1ccc(Cl)cc1)(c1ccc2c(c1)c(-c1cccc(Cl)c1C)cc(=O)n2C)c1cncn1C` (racemic) [Compound 2g, 4-(3-Chloro-2-methylphenyl)-6-((4-chlorophenyl)(methoxy)(1-methyl-1H-imidazol-5-yl)methyl)-1-methylquinolin-2(1H)-one], the “Inhibition of human 14DM” value on human 14DM is recorded as “do not inhibit”. This compound also had a peak concentration (Cmax) in series [2] (plasma) of 5 to 7 µM. In series [3], the “Inhibition of CYP3A4 (in words)” value is “weak inhibition”. For the same compound, the “Ratio IC50/EC50” value on rat PFT (PFT IC50 / T. cruzi amastigote EC50) is >7700 ^*. In addition, at rat PFT (read-out: PFT inhibition at highest concentration evaluated), the inhibition at 5 µM is under 50%. In addition, in series [1], the “Weight loss in mice” value is “some weight loss was observed” and the “Survival of infected mice” value is given as “One mouse in the 2g group died after the end of treatment”.

As for `Cc1ccccc1-c1cc(=O)n(C)c2ccc([C@](N)(c3ccc(Cl)cc3)c3cncn3C)cc12` (racemic) [Compound 2d], on rat PFT, the “Fold increase in PFT IC50 (decrease in PFT inhibition) compared to tipifarnib” value was “about 430 fold”.

For `Cc1cc([C@@](N)(c2ccc3c(c2)c(-c2cccc(Cl)c2)cc(=O)n3C)c2cncn2C)ccc1Cl` (racemic) [Compound 2a], the “Fold increase in PFT IC50 (decrease in PFT inhibition) compared to tipifarnib” value on rat PFT was 19 fold.

Take `Cn1cncc1[C@@](N)(c1ccc(Cl)cc1)c1ccc2c(c1)c(-c1cccc3ccccc13)cc(=O)n2C` (racemic) [Compound 2f]: at human 14DM, the “Inhibition of human 14DM” value is “do not inhibit”.

For the compound `Cn1cncc1[C@@](N)(c1ccc(Cl)cc1)c1ccc2c(c1)c(-c1cccc(Cl)c1)cc(=O)n2C` [Tipifarnib, tipifarnib], the “Inhibition of human 14DM” value at human 14DM was “do not inhibit”. In [4], the “Inhibitory activity against mammalian cytochrome P450 enzymes” value is reported as “very little inhibitory activity”. Further, in series [5], the “Dose limiting toxicities in humans” value is recorded as “bone marrow suppression”. In [2] (in vivo), this compound showed a Cmax of 5 to 7 µM and a half-life of about 4 h. Also, the Terminal half-life in series [6] was 16 h. For the same compound, the 50% effective concentration (EC50) in the series on T. cruzi amastigotes worked out at 6 nM. For the same compound, the “Activity against isolated T. cruzi PFT enzyme” value in the series with T. cruzi PFT enzyme is “weak activity”. In series [1], the “Weight loss in mice” value was “some weight loss was observed” and the “Survival of infected mice” value is “did not protect the mice from death”. The “Delay in development of high parasitemia” value in [1] (oral gavage twice daily from day 8 post-infection) is 3−4 days.

What is called Cmax is the peak of the concentration-time curve. Broadly, the half-life is the time in which the quantity being followed falls by half. As a reminder, the EC50 is the concentration at which the effect is half-maximal.
